# Data as given in patent US20130079309A1, “Method Of Treating Acute Lung Injury Using Sphingosine 1 Phosphate Analogs Or Sphingosine 1 Phosphate Receptor Agonists” (The Board of Trustees of the University of Illinois, priority 2010, published 2013).
# Residues, ends and D or L forms follow the SMILES beside them. *: point of attachment. Cbz = O=C(OCc1ccccc1)*
# What was measured:
# [1] = test system: ERK; assay: Western blotting of HPAEC lysates for phospho-ERK; type: cell-based, human; details: 5 min
# Experimental: (§1) After treatment as outlined for individual experiments, confluent HPAEC were lysed for Western blotting with phospho-MLC, pan-MLC, phospho-ERK, or pan-ERK antibodies. […] Membranes were then immunoblotted with primary antibodies (1:500-1000, 4° C., overnight) followed by secondary antibodies conjugated to horseradish peroxidase (1:5000, room temperature, 30 min) and detected with enhanced chemiluminescence (Pierce ECL or SuperSignal West Dura; Pierce Biotechnology, Rockford, Ill.) on Biomax MR film (Carestream Health, Rochester, N.Y.).
# [2] = test system: HPAEC; assay: Transwell transendothelial permeability assay (FITC-dextran); type: cell-based, human; details: 1 μM (3R, 3S 25 μM), 1 h before FITC-dextran, 2-h incubation
# Experimental: As a complementary approach to further characterize the barrier-protective effects of these FTY720 analogs in vitro, the permeability of FITC-labeled dextran across the pulmonary EC monolayer was assayed in response to treatment by the FTY720 analogs. […] Data were normalized to unstimulated control. n=3 independent experiments per condition; *, p<0.01 versus unstimulated condition (see FIG. 26).
# [3] = test system: MLC; assay: Western blotting of HPAEC lysates for phospho-MLC; type: cell-based, human; details: 5 min
# Experimental: as §1
# [4] = test system: HPAEC; assay: Transendothelial electrical resistance (TER) of HPAEC; type: cell-based, human; details: for maximal percentage TER change compared with S1P and FTY720 / maximal TER change: within 60 min; for maximal TER change: 10 μM
# Experimental: Cells were grown at 37° C. in a 5% CO2 incubator, and passages 6 to 9 were used for experiments. Media were changed 1 day before experimentation.
# [5] = test system: HPAEC; assay: Pharmacologic inhibitor effects on barrier enhancement (TER); details: 1 μM agonist, 60 min; for % Inhibition of Maximal TER Response (of Agonist-Only Control), PTX: 2-h preincubation 100 ng/ml PTX; for % Inhibition of Maximal TER Response (of Agonist-Only Control), MβCD: 2-h preincubation 2 mM MβCD; for % Inhibition of Maximal TER Response (of Agonist-Only Control), Gen: 30-min preincubation 200 μM genistein
# Experimental: Endothelial cells were grown to confluence in polycarbonate wells containing evaporated gold microelectrodes (surface area, 10^−3 cm^2) in series with a large gold counter electrode (1 cm^2) connected to a phase-sensitive lock-in amplifier. Current was applied across the electrodes by a 4,000-Hz AC voltage source with amplitude of 1 V in series with a 1 MΩ resistance to approximate a constant current source (˜1 μA). The in-phase and out-of-phase voltages between the electrodes were monitored in real time with the lock-in amplifier and subsequently converted to scalar measurements of transendothelial impedance, of which resistance was the primary focus. TER was monitored for 30 minutes to establish a baseline resistance (R0) which, for bovine pulmonary endothelium, was typically between 8 to 12×10^3Ω (wells with R0<7×10^3Ω were rejected). As cells adhere and spread out on the microelectrode, TER increases (maximal at confluence), whereas cell retraction, rounding, or loss of adhesion is reflected by a decrease in TER. These measurements provide a highly sensitive biophysical assay that indicates the state of cell shape and focal adhesion. Values from each microelectrode were pooled at discrete time points and plotted versus time as the mean±SE of the mean. TER values from each microelectrode were pooled as discrete time points and plotted versus time as the mean±S.E.M.
# In this experiment, confluent HPAEC were plated on gold microelectrodes and then stimulated with 1 μM S1P, FTY720, 1R, 1S, 2R, or 2S after either a 2-h preincubation with 100 ng/ml PTX, 30-min preincubation with 200 μM genistein (Gen), or 2-h preincubation with 2 mM MβCD or their respective vehicle controls. Data were pooled from multiple TER experiments (4-10 independent experiments per condition) and expressed as percentage inhibition of maximal barrier enhancement at 60 min relative to agonist-only control.
# [6] = target: T1, S1P receptor 1 (S1PR1) (Homo sapiens, UniProt P21453); assay: Ubiquitination of S1PR1 in HPAEC (immunoprecipitation, ubiquitin Ab); details: for ubiquitination of S1PR1 at 2 h: 1 μM (SEW2871 10 μM)
# T1 sequence (P21453 whole entry): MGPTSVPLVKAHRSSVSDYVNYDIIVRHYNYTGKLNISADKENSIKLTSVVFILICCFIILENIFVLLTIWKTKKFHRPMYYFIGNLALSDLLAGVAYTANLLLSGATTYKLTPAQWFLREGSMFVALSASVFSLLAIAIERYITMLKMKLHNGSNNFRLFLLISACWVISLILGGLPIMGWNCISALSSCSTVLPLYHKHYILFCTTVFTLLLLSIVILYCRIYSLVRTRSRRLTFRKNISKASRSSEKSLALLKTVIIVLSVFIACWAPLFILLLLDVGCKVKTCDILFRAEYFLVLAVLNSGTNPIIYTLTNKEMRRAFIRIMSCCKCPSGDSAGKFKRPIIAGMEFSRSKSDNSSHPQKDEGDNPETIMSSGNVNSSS
# Source text: S1PR1 was immunoprecipitated by S1PR1Ab, and ubiquitination of S1PR1 was detected by ubiquitin Ab.
# [7] = test system: lung vascular leakage in RILI mice; assay: ViSen FMT lung imaging of intravascular probe extravasation in RILI mice; type: in vivo, mouse; details: 0.1 mg/kg, 25 Gy, 6 weeks
# Experimental: Lung imaging studies were also performed with assessment of RILI-induced extravasation of an intravascular probe.
# To assess microvascular changes associated with RILI in real-time, mice were imaged with ViSen FMT 1500 Quantitative Tomography In Vivo Imaging System. Intergisens^750 NIR (ViSen Medicals, Bedford, Mass.) was used as a probe, which targets the vasculature as a selective non-peptide small molecule integrin αvβ3 antagonist and a near-infrared fluorochrome. Mice were injected with probe ([…], IV) at 6 weeks post radiation and imaged 24 hrs later. Probe intensity was quantified using TrueQuant 3D software (VisSen Medicals).
# [8] = test system: β-arrestin; details: 1 μM (SEW2871 10 μM; (S)-FTY720-phosphonate 1, 10, 50 μM), 5 h
# Experimental: After another 2 h-incubation with fluorescence substrate, the fluorescence intensity (blue and green channels) were detected and the blue/green emission ratio was used as the activation indicator.
# [9] = target: T1, S1P receptor 1 (S1PR1); assay: S1PR1 protein expression in HPAEC by Western blot; type: cell-based; parameters: Cells were collected and S1PR1 expression level was detected by Western blot; endogenous in cells; host or cells: HPAEC (human pulmonary artery endothelial cells); details: for S1PR1 expression level compared to control: 1 μM (SEW2871 10 μM), 4 h
# Source text: Cells were collected and S1PR1 expression level was detected by Western blot.
# [10] = test system: radiation-induced lung injury (RILI) in C57BL/6 mice; assay: Murine model of RILI: BAL protein, BAL cell counts, BAL cytokines, EBD extravasation, body weight, lung histology; type: in vivo, mouse; details: 6 weeks
# Experimental: Eight to 10-week-old C57BL/6J mice (Jackson Labs, Bar Harbor, Me.) were used for all studies in accordance with the University of Chicago Institutional Animal Care & Use Committee guidelines.
# At the termination of each experiment, animals were euthanized by exsanguination under anesthesia in accordance with institutional guidelines. Both lungs were lavaged with 1.0 mL of Hank's buffered saline solution with the fluid allowed to equilibrate for 10 s before withdrawing. The pulmonary vasculature was perfused clear via the pulmonary artery with sterile phosphate-buffered saline (PBS). Both lungs were excised, weighed, and snap-frozen in liquid nitrogen for subsequent analysis. The BAL fluid collected was centrifuged at 500×g for 20 min at 4° C., and the supernatant was removed and recentrifuged at 12,000×g before snap-freezing. Cell pellets were resuspended in 0.5 mL of red blood cell lysis buffer (ACK Lysing Buffer; BioSource International, Camarillo, Calif.) for 20 min and then repelleted by centrifugation at 2500 rpm for 20 min at 4° C. The supernatant was decanted, and the cell pellet was resuspended in 0.2 mL of PBS for cellular analysis using a standard hemacytometer technique. A total of 300 BAL cells per slide were counted for cell differentials using a Diff-Quick-stained kit (Baxter Diagnostics, McGaw Park, Ill.). BAL protein concentrations were determined by a colorimetric BCA assay. Albumin concentrations in the BAL at 1:1000 and 1:100 dilutions, respectively, were quantitated by ELISA (Bethyl Labs, Montgomery, Tex.). To measure cytokines and chemokines, the BAL fluid was assayed with a Bioplex mouse cytokine kit (Bio-Rad, Hercules, Calif.) in accordance with the manufacturer's instructions.
# All other chemicals were analytical or cell-culture grade and were obtained from various commercial sources. Evans Blue dye conjugated to albumin (EBA) was prepared by dissolving EBD to a concentration of 0.5% (5 mg/mL or 5.2 mM) in phosphate-buffered saline (PBS) (Ca^2+-Mg^2+ free; Invitrogen Corporation, Carlsbad, Calif.). To this solution, BSA was added to a final concentration of 4% (40 mg/mL or 0.6 mM), mixed well by stirring with a magnetic bar, allowed to stand for 30 min, and then sterile-filtered through a 0.22-μm syringe filter. The conjugate was stored in small aliquots at −80° C. To prevent cross-contamination, each aliquot was used only once in one animal and then discarded. 4, 6, 8, or 12 weeks after irradiation, the animals were injected with EBA via the jugular vein. At the end of exposure, the pulmonary circulation was flushed and lungs were harvested. Formamide extracts of lungs were prepared, with the initial modification that the homogenates were centrifuged at 12,000×g. Centrifugation at this relative centrifugal force (RCF) produced a compact pellet that allowed accurate measurement of the recovered volumes. Accurate estimation of such volumes is critical for calculating the final tissue dilution factor. Lungs, kidneys, and hearts from mice that were not injected with EBA were similarly extracted, to calculate the tissue-specific correction factors. […] Linear regression equations between absorbance at 740 nm (X) and 620 nm (Y) in tissue extracts of animals untreated with EBA were considered to be the tissue-specific correction factors. […] The EB concentration read in mg/mL was converted to μg/g wet weight of lungs using the dilution factor of the original homogenate as described above.
# Eight to 10-week-old C57BL/6J mice (Jackson Labs, Bar Harbor, Me.) were used for all studies in accordance with the University of Chicago Institutional Animal Care & Use Committee guidelines. […] (FIG. 4A). Bronchoalveolar lavage (BAL) was performed as described above. BAL protein concentrations were determined by a colorimetric BCA assay. Albumin concentrations in the BAL at 1:1000 and 1:100 dilutions, respectively, were quantitated by ELISA (Bethyl Labs, Montgomery, Tex.).
# [11] = 0.01 or 0.1 mg/kg i.p. 2×/wk from 1 wk before irradiation (20 Gy)
ubiquitination of S1PR1 at 2 h [6],S1PR1 expression level compared to control [9],Compound,ERK phosphorylation [1],maximal percentage TER change compared with S1P and FTY720 ([4]; 1 μM),maximal TER change [4],"% Inhibition of Maximal TER Response (of Agonist-Only Control), PTX [5]","% Inhibition of Maximal TER Response (of Agonist-Only Control), MβCD [5]","% Inhibition of Maximal TER Response (of Agonist-Only Control), Gen [5]",activation of β-arrestin (blue/green emission ratio) [8],further results
,,"CCCCCCCCc1ccc(CCC(O)(CN)CCO)cc1 (centres unmarked) [3R, 3-(aminomethyl)-5-(4-octylphenyl)pentane-1,3-diol]",did not increase ERK or MLC phosphorylation,,,,,,,EC permeability to FITC-dextran vs control EC [2]: increase EC permeability; MLC phosphorylation [3]: did not increase ERK or MLC phosphorylation; TER response (tracing) ([4]; 1 μM): barrier-disruptive
,,"CCCCCCCCc1ccc(CC[C@@](N)(C=CP(=O)(O)O)CO)cc1 [2R, (R)-3-amino-3-(hydroxymethyl)-5-(4-octylphenyl)pent-1-enylphosphonic acid]",increased phosphorylation of ERK,greater maximal percentage TER change,even greater maximal TER elevation,88.1 (±7.8) %,87.4 (±5.4) %,41.1 (±12.2) %,,
significant ubiquitination,30.3%,"FC(F)(F)c1cccc(-c2noc(-c3cc(-c4ccccc4)c(C(F)(F)F)s3)n2)c1 [SEW2871, 5-[4-phenyl-5-(trifluoromethyl)-2-thienyl]-3-[3-(trifluoromethyl)phenyl]-1,2,4-oxadiazole]",,,,,,,strongly activated,"radiation-induced probe extravasation (probe intensity), FMT imaging [7]: significant decreases; lung histology: inflammatory cell infiltration and interstitial edema induced by radiation ([10]; 0.1 mg/kg i.p. 2×/wk, 25 Gy): to a lesser extent; BAL cell counts vs RILI-challenged controls [10, 11]: dose-dependent protective effect; BAL protein vs RILI-challenged controls [10, 11]: dose-dependent protective effect"
,,"CCCCCCCCc1ccc(CC[C@](N)(C=CP(=O)(O)O)CO)cc1 [2S, (S)-3-amino-3-(hydroxymethyl)-5-(4-octylphenyl)pent-1-enylphosphonic acid]",failed to induce phosphorylation,,somewhat barrier-disruptive,76.3 (±12.0) %,95.2 (±1.0) %,91.6 (±2.4) %,,
,,"CC(C)C[C@@H](C=O)NC(=O)[C@H](CC(C)C)NC(=O)[C@H](CC(C)C)NC(=O)OCc1ccccc1 [MG132, reference compound] (Cbz-Leu-Leu-Leu-aldehyde)",,,,,,,,"S1PR1 expression, MG132 alone ([9]; 10 μM): did not affect the expression of S1PR1"
significant ubiquitination,47.2%,"CCCCCCCCc1ccc(CC[C@](N)(CO)CCP(=O)(O)O)cc1 [1R, (R)-3-amino-3-(hydroxymethyl)-5-(4-octylphenyl)pentylphosphonic acid]",increased phosphorylation of ERK,greater maximal percentage TER change,even greater maximal TER elevation,79.2 (±5.9) %,67.0 (±19.7) %,54.3 (±14.7) %,strongly activated,"ubiquitination of S1PR1 at 1 h ([6]; 1 μM, 1 h): only slight ubiquitination; S1PR1 expression, agonist without MG132 ([9]; 1 μM, 4 h (FIG. 18)): 66.3%; S1PR1 expression, agonist after MG132 pretreatment ([9]; MG132 10 μM 2 h, then 1 μM agonist 4 h): 94.2%"
